Results on 13 molecules are retold here after patent US20250145609A1, “3-SUBSTITUTED PYRIDAZINE COMPOUNDS AS SMARCA2 AND/OR SMARCA4 DEGRADERS” (Aurigene Oncology Limited, priority 2022, published 2025).

One test deals with T1, SMARCA2 (Homo sapiens, UniProt P51531).
T1 construct: endogenous in cells; host or cells: VCaP (ATCC CRL-2876)
The test is described as follows: SMARCA2 degradation in VCaP cells by Western blot. It counts as cell-based. The conditions noted are these: at 100 nM, 16 hours. As to the method: (§1) Example-P2: Determination of SMARCA2 and SMARCA4 Degradation in VCaP Cells by Western Blot
(§2) VCaP (ATCC CRL-2876) was plated in 6 well plates using complete Dulbecco's Modified Eagle's Medium. On the third day, compounds of present invention were added to cells from 10 mM stocks made in DMSO (Sigma Cat no. D2650). Each compound was tested at 100 nM concentration with DMSO not exceeding final percentage of 0.3 in the cells. Cells were incubated with the compound for 16 hours followed by harvesting with 1×RIPA lysis buffer (Thermo Fischer, catalogue number #89900) containing protease inhibitor cocktail (Sigma catalogue number #P-8340). Equal amount of protein was loaded on SDS PAGE gel for electrophoresis. Western blot was carried out for detection of either SMARCA2 (Cell signalling technologies, catalogue number #11966) or SMARCA4 antibody (Cell signalling technologies, catalogue number #52251). Beta-Tubulin antibody (Cell signalling technologies, catalogue number #86298) was used as loading control. Percentage of SMARCA2 or SMARCA4 degradation was calculated by using formula: […]

The target in a further test is T2, SMARCA4 (Homo sapiens, UniProt P51532).
T2 construct: endogenous in cells; host or cells: VCaP (ATCC CRL-2876)
T2 sequence (P51532 whole entry): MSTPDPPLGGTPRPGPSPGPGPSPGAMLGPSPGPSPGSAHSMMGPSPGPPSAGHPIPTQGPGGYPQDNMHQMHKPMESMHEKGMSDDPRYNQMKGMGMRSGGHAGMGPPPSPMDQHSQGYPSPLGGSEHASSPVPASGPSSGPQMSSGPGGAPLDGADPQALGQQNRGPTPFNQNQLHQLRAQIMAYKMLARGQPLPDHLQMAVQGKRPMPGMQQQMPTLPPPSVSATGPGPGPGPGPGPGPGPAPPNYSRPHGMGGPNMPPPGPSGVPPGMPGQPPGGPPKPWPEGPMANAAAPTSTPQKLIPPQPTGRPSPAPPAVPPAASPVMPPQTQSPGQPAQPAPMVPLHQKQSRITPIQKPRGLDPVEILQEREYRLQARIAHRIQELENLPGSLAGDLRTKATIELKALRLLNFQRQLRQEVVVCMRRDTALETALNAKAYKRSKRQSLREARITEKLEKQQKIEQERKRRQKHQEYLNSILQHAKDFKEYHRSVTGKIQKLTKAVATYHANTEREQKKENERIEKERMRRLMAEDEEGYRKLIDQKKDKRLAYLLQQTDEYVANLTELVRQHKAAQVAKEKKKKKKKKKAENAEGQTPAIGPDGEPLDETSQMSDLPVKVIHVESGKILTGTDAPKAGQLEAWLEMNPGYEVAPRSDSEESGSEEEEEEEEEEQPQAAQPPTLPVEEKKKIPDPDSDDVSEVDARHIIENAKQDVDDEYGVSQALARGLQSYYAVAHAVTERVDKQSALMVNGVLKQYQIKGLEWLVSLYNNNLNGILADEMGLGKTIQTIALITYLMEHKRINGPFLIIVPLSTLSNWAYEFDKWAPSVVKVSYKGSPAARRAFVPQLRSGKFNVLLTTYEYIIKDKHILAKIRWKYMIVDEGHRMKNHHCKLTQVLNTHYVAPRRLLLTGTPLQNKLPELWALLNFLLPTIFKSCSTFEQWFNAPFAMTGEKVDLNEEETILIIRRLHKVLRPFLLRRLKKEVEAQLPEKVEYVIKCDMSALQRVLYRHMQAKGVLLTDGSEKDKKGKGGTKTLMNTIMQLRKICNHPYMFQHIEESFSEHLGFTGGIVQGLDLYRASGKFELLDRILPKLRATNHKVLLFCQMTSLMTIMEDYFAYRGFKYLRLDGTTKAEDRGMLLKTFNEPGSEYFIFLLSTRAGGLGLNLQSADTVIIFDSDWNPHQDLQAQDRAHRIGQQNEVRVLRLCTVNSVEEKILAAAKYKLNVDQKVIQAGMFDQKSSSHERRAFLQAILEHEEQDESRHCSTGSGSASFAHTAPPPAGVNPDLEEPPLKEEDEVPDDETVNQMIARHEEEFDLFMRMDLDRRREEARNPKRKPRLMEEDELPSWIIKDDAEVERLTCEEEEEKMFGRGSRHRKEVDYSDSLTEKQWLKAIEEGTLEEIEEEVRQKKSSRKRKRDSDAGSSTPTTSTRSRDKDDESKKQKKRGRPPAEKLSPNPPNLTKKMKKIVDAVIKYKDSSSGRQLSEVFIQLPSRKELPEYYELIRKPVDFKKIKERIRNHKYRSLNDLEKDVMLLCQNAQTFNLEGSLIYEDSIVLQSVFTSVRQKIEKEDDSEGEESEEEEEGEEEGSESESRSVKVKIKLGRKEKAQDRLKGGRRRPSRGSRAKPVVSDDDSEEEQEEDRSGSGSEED
The test is described as follows: SMARCA4 degradation in VCaP cells by Western blot. It counts as cell-based. As to conditions: at 100 nM; for Percent SMARCA4 degradation at 0.1 µM: VCaP, 16 h. As to the method:
as §1, §2

T1 sequence (P51531 whole entry): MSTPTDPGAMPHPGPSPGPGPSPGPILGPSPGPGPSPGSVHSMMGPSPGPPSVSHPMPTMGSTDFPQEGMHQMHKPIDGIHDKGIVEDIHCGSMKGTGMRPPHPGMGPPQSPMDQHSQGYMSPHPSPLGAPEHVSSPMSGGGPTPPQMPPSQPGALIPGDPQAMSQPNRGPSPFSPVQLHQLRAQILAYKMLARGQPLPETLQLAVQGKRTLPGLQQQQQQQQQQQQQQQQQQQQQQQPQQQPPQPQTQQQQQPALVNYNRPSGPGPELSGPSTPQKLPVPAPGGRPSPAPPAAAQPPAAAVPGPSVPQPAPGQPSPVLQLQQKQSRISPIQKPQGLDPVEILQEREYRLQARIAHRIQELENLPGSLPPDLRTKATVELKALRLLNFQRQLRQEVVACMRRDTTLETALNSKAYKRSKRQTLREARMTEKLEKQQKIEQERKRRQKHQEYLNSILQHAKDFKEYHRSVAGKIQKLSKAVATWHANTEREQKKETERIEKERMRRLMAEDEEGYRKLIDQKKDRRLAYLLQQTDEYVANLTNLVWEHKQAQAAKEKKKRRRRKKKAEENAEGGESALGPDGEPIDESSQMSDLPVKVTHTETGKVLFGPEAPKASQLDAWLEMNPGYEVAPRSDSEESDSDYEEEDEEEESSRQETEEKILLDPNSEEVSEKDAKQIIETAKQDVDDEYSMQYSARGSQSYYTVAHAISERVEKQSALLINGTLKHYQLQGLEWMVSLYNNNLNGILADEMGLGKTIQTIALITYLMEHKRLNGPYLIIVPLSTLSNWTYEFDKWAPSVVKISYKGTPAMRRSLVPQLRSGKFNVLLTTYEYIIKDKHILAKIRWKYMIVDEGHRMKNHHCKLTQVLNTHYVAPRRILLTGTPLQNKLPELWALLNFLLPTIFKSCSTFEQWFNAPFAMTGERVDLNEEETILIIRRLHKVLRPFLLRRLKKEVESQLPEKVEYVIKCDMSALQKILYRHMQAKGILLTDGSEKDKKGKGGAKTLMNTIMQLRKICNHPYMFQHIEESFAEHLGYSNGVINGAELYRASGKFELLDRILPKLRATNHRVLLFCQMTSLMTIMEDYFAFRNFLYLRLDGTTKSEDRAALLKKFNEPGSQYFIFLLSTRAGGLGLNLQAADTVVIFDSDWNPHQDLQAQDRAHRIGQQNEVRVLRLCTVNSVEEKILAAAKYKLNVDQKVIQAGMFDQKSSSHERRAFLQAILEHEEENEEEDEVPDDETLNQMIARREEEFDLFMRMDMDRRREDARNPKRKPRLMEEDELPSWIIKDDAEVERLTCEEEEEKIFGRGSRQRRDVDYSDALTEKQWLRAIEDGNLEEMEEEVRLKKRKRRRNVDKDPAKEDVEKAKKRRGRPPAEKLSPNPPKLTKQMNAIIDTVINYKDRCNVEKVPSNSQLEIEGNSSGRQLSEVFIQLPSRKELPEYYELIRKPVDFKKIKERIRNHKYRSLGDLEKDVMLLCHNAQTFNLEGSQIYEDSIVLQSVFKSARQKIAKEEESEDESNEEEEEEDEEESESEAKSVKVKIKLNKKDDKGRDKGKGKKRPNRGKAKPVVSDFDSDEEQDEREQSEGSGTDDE

For the molecule `Cc1ncsc1-c1ccc([C@H](C)NC(=O)[C@@H]2C[C@@H](O)CN2C(=O)[C@@H](NC(=O)CN2CCN(c3ccc(-c4cc(Cl)nnc4N)cc3)CC2)C(C)(C)C)cc1` [Compound 13, (2S,4R)-1-((S)-2-(2-(4-(4-(3-amino-6-chloropyridazin-4-yl)phenyl)piperazin-1-yl)acetamido)-3,3-dimethylbutanoyl)-4-hydroxy-N—((S)-1-(4-(4-methylthiazol-5-yl)phenyl)ethyl)pyrrolidine-2-carboxamide], the “Percent degradation SMARCA2” value at SMARCA2 is reported as 27%. Further, on SMARCA4, the Percent SMARCA4 degradation at 0.1 µM came to 38%.

Turning to `Cc1ncsc1-c1ccc([C@H](C)NC(=O)[C@@H]2C[C@@H](O)CN2C(=O)[C@@H](NC(=O)CCN2CCN(c3ccc(-c4cc(-c5ccccc5O)nnc4N)cc3)CC2)C(C)(C)C)cc1` [Compound 18, (2S,4R)-1-((S)-2-(3-(4-(4-(3-amino-6-(2-hydroxyphenyl)pyridazin-4-yl)phenyl)piperazin-1-yl)propanamido)-3,3-dimethylbutanoyl)-4-hydroxy-N—((S)-1-(4-(4-methylthiazol-5-yl)phenyl)ethyl)pyrrolidine-2-carboxamide], the “Percent degradation SMARCA2” value on SMARCA2 is 98%. The molecule further yielded a Percent SMARCA4 degradation at 0.1 µM on SMARCA4 of 93%.

Take `Cc1ncsc1-c1ccc([C@H](C)NC(=O)[C@@H]2C[C@@H](O)CN2C(=O)[C@@H](NC(=O)CN2CCC(c3cccc(-c4cc(-c5ccccc5O)nnc4N)c3)CC2)C(C)(C)C)cc1` [Compound 46, (2S,4R)-1-((S)-2-(2-(4-(3-(3-amino-6-(2-hydroxyphenyl)pyridazin-4-yl)phenyl)piperidin-1-yl)acetamido)-3,3-dimethylbutanoyl)-4-hydroxy-N-((S)-1-(4-(4-methylthiazol-5-yl)phenyl)ethyl)pyrrolidine-2-carboxamide]: on SMARCA2, the “Percent degradation SMARCA2” value is given as 98%. On SMARCA4, this molecule returned a Percent SMARCA4 degradation at 0.1 µM of 96%.

As to `Cc1ncsc1-c1ccc([C@H](C)NC(=O)[C@@H]2C[C@@H](O)CN2C(=O)[C@@H](NC(=O)C(C)N2CCC(c3ccc(-c4cc(-c5ccccc5O)nnc4N)cc3)CC2)C(C)(C)C)cc1` (single isomer, unassigned) [Compound 33], the “Percent degradation SMARCA2” value at SMARCA2 came out at 42%. The Percent SMARCA4 degradation at 0.1 µM on SMARCA4 was 0%.

`Cc1ncsc1-c1ccc([C@H](C)NC(=O)[C@@H]2C[C@@H](O)CN2C(=O)C(c2cc(-c3ccc(-c4cc(-c5ccccc5O)nnc4N)cc3)no2)C(C)C)cc1` (stereo partly drawn) [Compound 4, (2S,4R)-1-(2-(3-(4-(3-amino-6-(2-hydroxyphenyl)pyridazin-4-yl)phenyl)isoxazol-5-yl)-3-methylbutanoyl)-4-hydroxy-N—((S)-1-(4-(4-methylthiazol-5-yl)phenyl)ethyl)pyrrolidine-2-carboxamide]: the “Percent degradation SMARCA2” value at SMARCA2 is 98%. At SMARCA4, this molecule showed a Percent SMARCA4 degradation at 0.1 µM of 11%.

`Cc1ncsc1-c1ccc([C@H](C)NC(=O)[C@@H]2C[C@@H](O)CN2C(=O)[C@H](c2cc(-c3ccc(-c4cc(-c5ccccc5O)nnc4N)cc3)no2)C(C)C)cc1` [Compound 5, (2S,4R)-1-((S)-2-(3-(4-(3-amino-6-(2-hydroxyphenyl)pyridazin-4-yl)phenyl)isoxazol-5-yl)-3-methylbutanoyl)-4-hydroxy-N—((S)-1-(4-(4-methylthiazol-5-yl)phenyl)ethyl)pyrrolidine-2-carboxamide]: the “Percent degradation SMARCA2” value at SMARCA2 worked out at 57%. Also, on SMARCA4, the Percent SMARCA4 degradation at 0.1 µM stood at 62%.

Turning to `Cc1ncsc1-c1ccc([C@H](C)NC(=O)[C@@H]2C[C@@H](O)CN2C(=O)C(c2cc(-c3ccc(-c4cc(-c5ccccc5C(F)F)nnc4N)cc3)no2)C(C)C)cc1` (stereo partly drawn) [Compound 8, (2S,4R)-1-(2-(3-(4-(3-amino-6-(2-(difluoromethyl)phenyl)pyridazin-4-yl)phenyl)isoxazol-5-yl)-3-methylbutanoyl)-4-hydroxy-N-((S)-1-(4-(4-methylthiazol-5-yl)phenyl)ethyl)pyrrolidine-2-carboxamide], the “Percent degradation SMARCA2” value at SMARCA2 is on record as 0%. This molecule returned a Percent SMARCA4 degradation at 0.1 µM on SMARCA4 of 18%.

As to `Cc1ncsc1-c1ccc([C@H](C)NC(=O)[C@@H]2C[C@@H](O)CN2C(=O)[C@@H](NC(=O)CCCC#Cc2ccc(-c3cc(-c4cc(F)ccc4O)nnc3N)cc2)C(C)(C)C)cc1` [Compound 23, (2S,4R)-1-((S)-2-(6-(4-(3-amino-6-(5-fluoro-2-hydroxyphenyl)pyridazin-4-yl)phenyl)hex-5-ynamido)-3,3-dimethylbutanoyl)-4-hydroxy-N-((S)-1-(4-(4-methylthiazol-5-yl)phenyl)ethyl)pyrrolidine-2-carboxamide], the “Percent degradation SMARCA2” value on SMARCA2 stood at 82%. This molecule returned a Percent SMARCA4 degradation at 0.1 µM on SMARCA4 of 49%.

On to `Cc1ncsc1-c1ccc([C@H](C)NC(=O)[C@@H]2C[C@@H](O)CN2C(=O)[C@@H](NC(=O)C2CCC(c3ccc(-c4cc(-c5ccccc5O)nnc4N)cc3)CC2)C(C)(C)C)cc1` (single isomer, unassigned) [Compound 41], for which, on SMARCA2, the “Percent degradation SMARCA2” value is 92%. In addition, the “Percent degradation SMARCA4” value at SMARCA4 (16 hours) turned out to be 52%.

Regarding `Cc1ncsc1-c1ccc([C@H](C)NC(=O)[C@@H]2C[C@@H](O)CN2C(=O)[C@@H](NC(=O)C2CCN(c3ccc(-c4cc(-c5ccccc5O)nnc4N)cc3)CC2)C(C)(C)C)cc1` [Compound 47, 1-(4-(3-amino-6-(2-hydroxyphenyl)pyridazin-4-yl)phenyl)-N-((S)-1-((2S,4R)-4-hydroxy-2-(((S)-1-(4-(4-methylthiazol-5-yl)phenyl)ethyl)carbamoyl)pyrrolidin-1-yl)-3,3-dimethyl-1-oxobutan-2-yl)piperidine-4-carboxamide], the “Percent degradation SMARCA2” value at SMARCA2 is listed as 99%. On SMARCA4, the Percent SMARCA4 degradation at 0.1 µM was 95%.

Regarding `Cc1ncsc1-c1ccc([C@H](C)NC(=O)[C@@H]2C[C@@H](O)CN2C(=O)C(c2cc(-c3ccc(-c4cc(-c5ccccc5F)nnc4N)cc3)no2)C(C)C)cc1` (stereo partly drawn) [Compound 9, (2S,4R)-1-(2-(3-(4-(3-amino-6-(2-fluorophenyl)pyridazin-4-yl)phenyl)isoxazol-5-yl)-3-methylbutanoyl)-4-hydroxy-N-((S)-1-(4-(4-methylthiazol-5-yl)phenyl)ethyl)pyrrolidine-2-carboxamide], at SMARCA2, the “Percent degradation SMARCA2” value stood at 30%. At SMARCA4, this molecule yielded a Percent SMARCA4 degradation at 0.1 µM of 62%.

Take `Cc1ncsc1-c1ccc([C@H](C)NC(=O)[C@@H]2C[C@@H](O)CN2C(=O)[C@@H](NC(=O)CC#Cc2ccc(-c3cc(Cl)nnc3N)cc2)C(C)(C)C)cc1` [Compound 22, (2S,4R)-1-((S)-2-(4-(4-(3-amino-6-chloropyridazin-4-yl)phenyl)but-3-ynamido)-3,3-dimethylbutanoyl)-4-hydroxy-N-((S)-1-(4-(4-methylthiazol-5-yl)phenyl)ethyl)pyrrolidine-2-carboxamide]: the “Percent degradation SMARCA2” value at SMARCA2 turned out to be 2%. Moreover, the Percent SMARCA4 degradation at 0.1 µM on SMARCA4 turned out to be 7%.

As to `Cc1ncsc1-c1ccc([C@H](C)NC(=O)[C@@H]2C[C@@H](O)CN2C(=O)[C@@H](NC(=O)CCC#Cc2ccc(-c3cc(-c4ccccc4O)nnc3N)cc2)C(C)(C)C)cc1` [Compound 20, (2S,4R)-1-((S)-2-(5-(4-(3-amino-6-(2-hydroxyphenyl)pyridazin-4-yl)phenyl)pent-4-ynamido)-3,3-dimethylbutanoyl)-4-hydroxy-N-((S)-1-(4-(4-methylthiazol-5-yl)phenyl)ethyl)pyrrolidine-2-carboxamide], the “Percent degradation SMARCA2” value at SMARCA2 amounted to 98%. Moreover, the Percent SMARCA4 degradation at 0.1 µM on SMARCA4 turned out to be 97%.
